Reference: ChEMBL document CHEMBL3421558, “Structure activity relationship of substituted 1,5-naphthyridine analogs of oxabicyclooctane-linked novel bacterial topoisomerase inhibitors as broad-spectrum antibacterial agents (Part-4)” (Bioorg Med Chem Lett, 2015)
In brackets after ≈: the same amount, converted by molar mass.

Experiments:
Type in all cases: functional
Staphylococcus aureus [1] = assay: Antimicrobial activity against Staphylococcus aureus Smith by micro broth dilution or agar based method
Staphylococcus aureus [2] = assay: Antimicrobial activity against methicillin-resistant Staphylococcus aureus OIT971 by micro broth dilution or agar based method
Streptococcus pneumoniae = assay: Antimicrobial activity against Streptococcus pneumoniae IID553 by micro broth dilution or agar based method
Enterococcus faecium = assay: Antimicrobial activity against VanA expressing vancomycin-resistant Enterococcus faecium by micro broth dilution or agar based method
Escherichia coli = assay: Antimicrobial activity against Escherichia coli ATCC 25922 by micro broth dilution or agar based method
Acinetobacter baumannii = assay: Antimicrobial activity against Acinetobacter baumannii IID876 by micro broth dilution or agar based method
Pseudomonas aeruginosa = assay: Antimicrobial activity against Pseudomonas aeruginosa PAO1 by micro broth dilution or agar based method
[3] = Staphylococcus aureus, Smith, read-out: MIC
[4] = Streptococcus pneumoniae, IID553, read-out: MIC
[5] = Enterococcus faecium, read-out: MIC
[6] = Escherichia coli, ATCC 25922, read-out: MIC
[7] = Acinetobacter baumannii, IID876, read-out: MIC
[8] = Pseudomonas aeruginosa, PAO1, read-out: MIC

| SMILES | MIC (Staphylococcus aureus [1]; [3]) | MIC (Staphylococcus aureus [2]) | MIC (Streptococcus pneumoniae; [4]) | MIC (Enterococcus faecium; [5]) | MIC (Escherichia coli; [6]) | MIC (Acinetobacter baumannii; [7]) | MIC (Pseudomonas aeruginosa; [8]) | MIC (Staphylococcus aureus [1]) | MIC (Streptococcus pneumoniae) | MIC (Enterococcus faecium) | MIC (Escherichia coli) | MIC (Acinetobacter baumannii) | MIC (Pseudomonas aeruginosa) |
| --- | --- | --- | --- | --- | --- | --- | --- | --- | --- | --- | --- | --- | --- |
| COC(=O)c1ccc2ncc(F)c(CCC34CCC(NCc5ccc6c(n5)NC(=O)CO6)(CC3)CO4)c2n1 | 0.063 µg/mL (≈ 0.121 µM) | 0.063 µg/mL (≈ 0.121 µM) | 16 µg/mL (≈ 30.7 µM) | 16 µg/mL (≈ 30.7 µM) | 8 µg/mL (≈ 15.3 µM) | 2 µg/mL (≈ 3.83 µM) | 16 µg/mL (≈ 30.7 µM) |  |  |  |  |  |  |
| O=C1COc2ccc(CNC34CCC(CCc5c(F)cnc6cc(Cl)cnc56)(CC3)OC4)nc2N1 | 8 µg/mL (≈ 16.1 µM) | 8 µg/mL (≈ 16.1 µM) | 32 µg/mL (≈ 64.3 µM) | 32 µg/mL (≈ 64.3 µM) | 32 µg/mL (≈ 64.3 µM) | 32 µg/mL (≈ 64.3 µM) | 32 µg/mL (≈ 64.3 µM) |  |  |  |  |  |  |
| COc1nc2c(CCC34CCC(NCc5ccc6c(n5)NC(=O)CO6)(CC3)CO4)ccnc2cc1C#N | 16 µg/mL (≈ 32 µM) | 2 µg/mL (≈ 4 µM) | 64 µg/mL (≈ 128 µM) | 64 µg/mL (≈ 128 µM) | 64 µg/mL (≈ 128 µM) | 64 µg/mL (≈ 128 µM) | 64 µg/mL (≈ 128 µM) |  |  |  |  |  |  |
| O=C1COc2ccc(CNC34CCC(CCc5c(F)cnc6ccc(C(=O)O)nc56)(CC3)OC4)nc2N1 | 16 µg/mL (≈ 31.5 µM) | 16 µg/mL (≈ 31.5 µM) | 16 µg/mL (≈ 31.5 µM) | 16 µg/mL (≈ 31.5 µM) | 16 µg/mL (≈ 31.5 µM) | 16 µg/mL (≈ 31.5 µM) | 16 µg/mL (≈ 31.5 µM) |  |  |  |  |  |  |
| O=C1COc2ccc(CNC34CCC(CCc5c(F)cnc6cccnc56)(CC3)OC4)nc2N1 | 0.5 µg/mL (≈ 1.08 µM) | 0.25 µg/mL (≈ 0.539 µM) | 4 µg/mL (≈ 8.63 µM) | 4 µg/mL (≈ 8.63 µM) | 4 µg/mL (≈ 8.63 µM) | 1 µg/mL (≈ 2.16 µM) | 16 µg/mL (≈ 34.5 µM) |  |  |  |  |  |  |
| COc1ccc2ncc(CO)c(CCC34CCC(NCc5ccc6c(n5)NC(=O)CO6)(CC3)CO4)c2n1 | 0.5 µg/mL (≈ 0.989 µM) |  | 0.5 µg/mL (≈ 0.989 µM) | 4 µg/mL (≈ 7.91 µM) | 16 µg/mL (≈ 31.6 µM) | 8 µg/mL (≈ 15.8 µM) | 32 µg/mL (≈ 63.3 µM) |  |  |  |  |  |  |
| O=C1COc2ccc(CNC34CCC(CCc5ccnc6cc(Cl)cnc56)(CC3)OC4)nc2N1 | 64 µg/mL (≈ 133 µM) | 16 µg/mL (≈ 33.3 µM) | 64 µg/mL (≈ 133 µM) | 64 µg/mL (≈ 133 µM) | 64 µg/mL (≈ 133 µM) | 64 µg/mL (≈ 133 µM) | 64 µg/mL (≈ 133 µM) |  |  |  |  |  |  |
| COc1ccc2ncc(C#N)c(CC(O)C34CCC(NCc5ccc6c(n5)NC(=O)CO6)(CC3)CO4)c2n1 (single isomer, unassigned; (-)) |  |  |  |  |  |  |  | 0.063 µg/mL (≈ 0.122 µM) | 0.25 µg/mL (≈ 0.484 µM) | 2 µg/mL (≈ 3.87 µM) | 4 µg/mL (≈ 7.74 µM) | 1 µg/mL (≈ 1.94 µM) | 16 µg/mL (≈ 31 µM) |
| COc1ccc2ncc(Cl)c(CCC34CCC(NCc5ccc6c(n5)NC(=O)CO6)(CC3)CO4)c2n1 | 0.008 µg/mL (≈ 0.0157 µM) | 0.008 µg/mL (≈ 0.0157 µM) | 0.25 µg/mL (≈ 0.49 µM) | 1 µg/mL (≈ 1.96 µM) | 2 µg/mL (≈ 3.92 µM) | 1 µg/mL (≈ 1.96 µM) | 8 µg/mL (≈ 15.7 µM) |  |  |  |  |  |  |
| COc1ccc2ncc(F)c(C[C@H](O)C34CCC(NCc5ccc6c(n5)NC(=O)CO6)(CC3)CO4)c2n1 | 0.02 µg/mL (≈ 0.0393 µM) | 0.06 µg/mL (≈ 0.118 µM) | 0.05 µg/mL (≈ 0.0981 µM) | 0.5 µg/mL (≈ 0.981 µM) | 2 µg/mL (≈ 3.93 µM) | 0.5 µg/mL (≈ 0.981 µM) | 8 µg/mL (≈ 15.7 µM) |  |  |  |  |  |  |
| CN(C)c1ccc2ncc(F)c(CCC34CCC(NCc5ccc6c(n5)NC(=O)CO6)(CC3)CO4)c2n1 | 0.25 µg/mL (≈ 0.494 µM) | 0.25 µg/mL (≈ 0.494 µM) | 2 µg/mL (≈ 3.95 µM) | 4 µg/mL (≈ 7.9 µM) | 8 µg/mL (≈ 15.8 µM) | 8 µg/mL (≈ 15.8 µM) | 8 µg/mL (≈ 15.8 µM) |  |  |  |  |  |  |
| Nc1ccc2ncc(F)c(CCC34CCC(NCc5ccc6c(n5)NC(=O)CO6)(CC3)CO4)c2n1 | 2 µg/mL (≈ 4.18 µM) | 1 µg/mL (≈ 2.09 µM) | 16 µg/mL (≈ 33.4 µM) | 8 µg/mL (≈ 16.7 µM) | 8 µg/mL (≈ 16.7 µM) | 2 µg/mL (≈ 4.18 µM) | 16 µg/mL (≈ 33.4 µM) |  |  |  |  |  |  |
| COc1ccc2ncc(C)c(CCC34CCC(NCc5ccc6c(n5)NC(=O)CO6)(CC3)CO4)c2n1 | 0.06 µg/mL (≈ 0.123 µM) |  | 0.06 µg/mL (≈ 0.123 µM) | 1 µg/mL (≈ 2.04 µM) | 4 µg/mL (≈ 8.17 µM) | 2 µg/mL (≈ 4.09 µM) | 16 µg/mL (≈ 32.7 µM) |  |  |  |  |  |  |
| COc1nc2c(CCC34CCC(NCc5ccc6c(n5)NC(=O)CO6)(CC3)CO4)ccnc2cc1Cl | 0.5 µg/mL (≈ 0.98 µM) | 0.25 µg/mL (≈ 0.49 µM) | 8 µg/mL (≈ 15.7 µM) | 16 µg/mL (≈ 31.4 µM) | 32 µg/mL (≈ 62.7 µM) | 32 µg/mL (≈ 62.7 µM) | 32 µg/mL (≈ 62.7 µM) |  |  |  |  |  |  |
| O=C1COc2ccc(CNC34CCC(CCc5c(F)cnc6ccc(O)nc56)(CC3)OC4)nc2N1 | 0.5 µg/mL (≈ 1.04 µM) | 0.25 µg/mL (≈ 0.521 µM) | 4 µg/mL (≈ 8.34 µM) | 8 µg/mL (≈ 16.7 µM) | 4 µg/mL (≈ 8.34 µM) | 2 µg/mL (≈ 4.17 µM) | 32 µg/mL (≈ 66.7 µM) |  |  |  |  |  |  |
| O=C1COc2ccc(CNC34CCC(CCc5ccnc6ccc(C(F)(F)F)nc56)(CC3)OC4)nc2N1 | 2 µg/mL (≈ 3.89 µM) | 1 µg/mL (≈ 1.95 µM) | 32 µg/mL (≈ 62.3 µM) | 16 µg/mL (≈ 31.2 µM) | 32 µg/mL (≈ 62.3 µM) | 8 µg/mL (≈ 15.6 µM) | 64 µg/mL (≈ 125 µM) |  |  |  |  |  |  |
| COc1cc2ncc(F)c(CCC34CCC(NCc5ccc6c(n5)NC(=O)CO6)(CC3)CO4)c2nc1OC | 0.5 µg/mL (≈ 0.955 µM) | 0.25 µg/mL (≈ 0.477 µM) | 8 µg/mL (≈ 15.3 µM) | 8 µg/mL (≈ 15.3 µM) | 8 µg/mL (≈ 15.3 µM) | 8 µg/mL (≈ 15.3 µM) | 8 µg/mL (≈ 15.3 µM) |  |  |  |  |  |  |
| COc1ccc2ncc(S(C)(=O)=O)c(CCC34CCC(NCc5ccc6c(n5)NC(=O)CO6)(CC3)CO4)c2n1 | 0.25 µg/mL (≈ 0.452 µM) |  | 0.5 µg/mL (≈ 0.903 µM) | 4 µg/mL (≈ 7.22 µM) | 16 µg/mL (≈ 28.9 µM) | 8 µg/mL (≈ 14.4 µM) | 32 µg/mL (≈ 57.8 µM) |  |  |  |  |  |  |
| COc1ccc2ncc(C(N)=O)c(CCC34CCC(NCc5ccc6c(n5)NC(=O)CO6)(CC3)CO4)c2n1 | 4 µg/mL (≈ 7.71 µM) |  | 2 µg/mL (≈ 3.86 µM) | 16 µg/mL (≈ 30.9 µM) | 32 µg/mL (≈ 61.7 µM) | 32 µg/mL (≈ 61.7 µM) | 32 µg/mL (≈ 61.7 µM) |  |  |  |  |  |  |
